Where “and” joins values, the source holds several entries; their conditions need not be identical. Equal entries are not always repeated.
How the values were obtained:
[1] = test system: HeLa cervical adenocarcinoma; test: Cell Proliferation Inhibition Assay (14C-thymidine incorporation), HeLa; type: cell-based; settings: Homo sapiens, HeLa cells;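 further: test compound in DMSO added to cells seeded in scintillating 96-well plates, DMSO-only wells as control, uptake of methyl 14C-thymidine into new DNA counted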
[2] = test system: HCT-116 colon carcinoma; test: Cell Proliferation Inhibition Assay (14C-thymidine incorporation), HCT-116; type: cell-based;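 further: proliferation measured as methyl 14C-thymidine uptake into new DNA, counted in 96-well scintillating microplates, compared with DMSO-only control wells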
[3] = test system: A375 malignant melanoma; test: Cell Proliferation Inhibition Assay (14C-thymidine incorporation), A375; type: cell-based; settings: Homo sapiens, A-375, A375 cells;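 further: proliferation measured by radiolabelled thymidine uptake into new DNA, counted in scintillating 96-well plates, compound-treated wells compared with DMSO-only control wells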
[4] = biological target: T1, VEGF-R2 (Rattus norvegicus, UniProt O08775); test: VEGF-R2 kinase screening assay (33P-ATP FlashPlate); type: biochemical; settings: rat VEGF-R2 kinase domain; 10 μM ATP; 1 hr at 30° C;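 further: Read-out is ³³P incorporation from ³³P-γ-ATP into biotinylated peptide substrate captured on streptavidin FlashPlate, counted by scintillation, 1% DMSO final, inhibition scaled between per-plate maximum and minimum signals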
T1 construct: polyhistidine (N)

[5] = biological target: T2, Aurora-A (Mus musculus, UniProt P97477); test: Aurora-A kinase screening assay (33P-ATP FlashPlate); type: biochemical; settings: 10 μM ATP, 1 hr at 30° C;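 further: His-tagged mouse Aurora-A phosphorylating a biotinylated peptide captured on streptavidin plates, read as 33P uptake by scintillation counting, 1% DMSO, inhibition scaled between per-plate maximum and minimum signals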
T2 construct: polyhistidine (N)
T2 sequence (P97477 1-395): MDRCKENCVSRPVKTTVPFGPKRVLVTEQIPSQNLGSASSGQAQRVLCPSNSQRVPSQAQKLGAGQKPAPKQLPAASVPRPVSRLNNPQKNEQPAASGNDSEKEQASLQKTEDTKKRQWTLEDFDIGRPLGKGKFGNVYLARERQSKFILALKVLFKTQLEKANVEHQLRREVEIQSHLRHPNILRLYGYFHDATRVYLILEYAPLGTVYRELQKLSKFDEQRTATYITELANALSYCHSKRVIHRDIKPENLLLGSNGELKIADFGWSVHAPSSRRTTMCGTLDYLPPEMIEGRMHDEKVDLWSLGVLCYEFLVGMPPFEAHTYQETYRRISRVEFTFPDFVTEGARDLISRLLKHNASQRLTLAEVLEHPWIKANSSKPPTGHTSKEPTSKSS

[6] = biological target: T3, CDK1 (Homo sapiens, UniProt P06493); test: CDK-1 kinase screening assay (33P-ATP FlashPlate); type: biochemical; settings: human CDK1 with cyclin B; 10 μM ATP; 1 hr at 30° C
T3 construct: purchased New England Biolabs, Beverly, Mass; 6020; host or cells: insect cells

[7] = biological target: T4, Lyn kinase (Homo sapiens, UniProt P07948); test: Lyn Kinase Assay; type: biochemical; settings: 5 μM ATP
T4 construct: purchased Upstate Biotechnology, Lake Placid, N.Y
Description: Test compound in 100% DMSO (0.5 μL) was added to the appropriate wells. Diluted Lyn kinase (human) (Accession Number EMBL M16038) (Upstate Biotechnology, Lake Placid, N.Y.) (diluted in a buffer consisting of 50 mM Tris at pH 7.5, 0.1 mM EGTA, Sodium Vanadate (0.1 mM), β-mercaptoethanol (0.1%) and 1 mg/mL bovine serum albumin) (2.5 μL) was added to the wells to initiate the reactions.
The reaction plates were incubated at 30° C. for 40 min. The reaction was terminated by the addition of a 3% phosphoric acid solution (5 μL). The reaction product (10 μL) was spotted onto a P30 filtermat and washed for 5 minutes in phosphoric acid (75 mM). The wash sequence was repeated two more times, followed with one final wash in methanol. The plates were then dried, sealed and read on the TopCount scintillation counter after adding 30 μL scintillation fluid.
(§1) A maximum and minimum signal for the assay was determined on each plate. The percent inhibition of a test compound was calculated according to the formula: […]
For a series of test concentrations, the IC50 was derived by graphing percent inhibition against the log of the concentrations tested for a given compound with results shown in Table 3
(§2) For compounds with multiple values, each value represents a separate assay result.

[8] = biological target: T5, c-Src kinase (Homo sapiens, UniProt P12931); test: c-Src Kinase Assay; type: biochemical; settings: 5 μM ATP
T5 construct: purchased Upstate Biotechnology, Lake Placid, N.Y
Description: A mixture of a 10× kinase buffer (80 mM MOPS at pH 7.0, 2 mM EDTA and 100 mM Magnesium Chloride), ATP (5 μM final from a 10 mM stock), a Cdc2 peptide […] (100 μM final from a 2.5 mM stock), γ-^33P ATP (10 μCi/μL stock) and water (for a total of 20 μL/well) was added to each well of a Streptavidin Flashplate.
Test compound in 100% DMSO (0.5 μL) was added to the appropriate wells. Diluted c-Src kinase (human) (Accession Number SWISS-PROT P12931) (Upstate Biotechnology, Lake Placid, N.Y.) (diluted in a buffer consisting of 20 mM MOPS at pH 7.0, 1 mM EDTA, β-mercaptoethanol (0.1%), Brij-35 (0.01%), glycerol (5%), and 1 mg/mL bovine serum albumin) (2.5 μL) was added to the wells to initiate the reactions. The reaction plates were incubated at 30° C. for 40 min. The reaction was terminated by the addition of a 3% phosphoric acid solution (5 μL). The reaction product (10 μL) was spotted onto a P30 filtermat and washed for 5 minutes in phosphoric acid (75 mM). The wash sequence was repeated two more times, followed with one final wash in methanol. The plates were then dried, sealed and read on the TopCount scintillation counter after adding 30 μL scintillation fluid.
as §1
For a series of test concentrations, the IC50 was derived by graphing percent inhibition against the log of the concentrations tested for a given compound with results shown in Table 2
as §2

[9] = biological target: T6, HER2 (Homo sapiens, UniProt P04626); test: HER2 kinase screening assay (33P-ATP FlashPlate); type: biochemical; settings: GST-HIS6 HER-2 aa 679 to 1255; 10 μM ATP; 1 hr at 30° C;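 further: Biotin-poly(GT) 4:1 peptide captured on streptavidin FlashPlate, 33P transfer from γ-ATP read by scintillation counting, lower incorporation means inhibition, 1% DMSO final, 100 µL reaction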
T6 construct: GST (Glutathione-S-Transferase) (N); HIS6 (N); thrombin cleavage site (N); purchased Proqinase, Freiburg, Germany

[10] = biological target: T7, RET (Homo sapiens, UniProt P07949); test: RET kinase screening assay (33P-ATP FlashPlate); type: biochemical; settings: human RET kinase domain; 10 μM ATP; 1 hr at 30° C;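 further: biotinylated peptide substrate captured on streptavidin FlashPlate, 33P phosphate transfer read by scintillation counting, 1% DMSO, lower incorporation means inhibition, percent relative to per-plate maximum and minimum signals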
T7 construct: polyhistidine (N)
T7 sequence (P07949 658-1114 limits assumed): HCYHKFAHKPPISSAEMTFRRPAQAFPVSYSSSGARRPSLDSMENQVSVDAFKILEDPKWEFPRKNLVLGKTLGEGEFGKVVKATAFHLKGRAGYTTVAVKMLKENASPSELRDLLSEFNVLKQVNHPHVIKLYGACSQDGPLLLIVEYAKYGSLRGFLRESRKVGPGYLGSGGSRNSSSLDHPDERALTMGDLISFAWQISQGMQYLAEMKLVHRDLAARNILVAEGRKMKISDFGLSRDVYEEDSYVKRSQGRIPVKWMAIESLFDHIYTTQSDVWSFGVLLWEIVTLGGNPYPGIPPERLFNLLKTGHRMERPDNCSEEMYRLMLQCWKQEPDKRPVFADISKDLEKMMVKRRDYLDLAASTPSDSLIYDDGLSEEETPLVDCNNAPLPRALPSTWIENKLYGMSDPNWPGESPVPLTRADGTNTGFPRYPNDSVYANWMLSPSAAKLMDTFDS

[11] = Homo sapiens, HCT-116, HCT-116 cells

T5 sequence (P12931 whole entry): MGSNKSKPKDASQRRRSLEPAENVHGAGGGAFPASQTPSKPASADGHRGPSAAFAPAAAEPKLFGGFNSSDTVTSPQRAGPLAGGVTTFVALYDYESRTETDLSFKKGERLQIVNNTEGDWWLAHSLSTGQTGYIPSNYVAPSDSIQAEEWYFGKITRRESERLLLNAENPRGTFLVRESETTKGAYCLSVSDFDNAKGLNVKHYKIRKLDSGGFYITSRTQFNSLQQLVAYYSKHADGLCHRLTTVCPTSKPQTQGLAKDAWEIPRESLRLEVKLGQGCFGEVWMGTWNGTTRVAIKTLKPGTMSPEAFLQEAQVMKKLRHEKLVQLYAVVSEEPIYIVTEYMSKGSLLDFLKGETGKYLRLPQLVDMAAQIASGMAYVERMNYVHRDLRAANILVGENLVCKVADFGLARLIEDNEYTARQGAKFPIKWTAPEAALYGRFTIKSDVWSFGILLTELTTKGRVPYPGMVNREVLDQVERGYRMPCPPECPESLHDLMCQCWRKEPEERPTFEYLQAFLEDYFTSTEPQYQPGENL
T6 sequence (P04626 679-1255): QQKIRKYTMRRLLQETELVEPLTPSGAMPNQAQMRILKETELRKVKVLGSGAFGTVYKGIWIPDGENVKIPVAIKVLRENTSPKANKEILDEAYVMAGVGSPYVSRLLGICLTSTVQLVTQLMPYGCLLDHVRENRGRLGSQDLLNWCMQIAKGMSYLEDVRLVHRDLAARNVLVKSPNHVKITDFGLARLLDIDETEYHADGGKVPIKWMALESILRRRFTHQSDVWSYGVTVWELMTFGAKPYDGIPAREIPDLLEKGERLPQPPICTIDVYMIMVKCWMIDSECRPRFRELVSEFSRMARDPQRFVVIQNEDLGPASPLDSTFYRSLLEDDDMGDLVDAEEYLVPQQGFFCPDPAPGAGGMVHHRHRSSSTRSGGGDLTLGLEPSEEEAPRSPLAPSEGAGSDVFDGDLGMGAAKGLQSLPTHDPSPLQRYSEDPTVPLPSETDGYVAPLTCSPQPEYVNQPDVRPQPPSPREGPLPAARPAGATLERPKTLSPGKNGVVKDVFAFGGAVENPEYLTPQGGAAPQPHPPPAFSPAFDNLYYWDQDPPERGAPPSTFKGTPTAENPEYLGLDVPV
T3 sequence (P06493 whole entry): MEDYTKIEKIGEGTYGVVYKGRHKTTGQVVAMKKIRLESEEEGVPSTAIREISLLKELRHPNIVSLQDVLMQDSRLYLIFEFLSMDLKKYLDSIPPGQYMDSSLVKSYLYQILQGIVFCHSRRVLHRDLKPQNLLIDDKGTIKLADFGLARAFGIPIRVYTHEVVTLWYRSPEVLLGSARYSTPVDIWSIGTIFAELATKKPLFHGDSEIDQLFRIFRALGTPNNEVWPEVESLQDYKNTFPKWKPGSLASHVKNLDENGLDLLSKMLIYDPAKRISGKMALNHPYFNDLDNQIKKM
T3 sequence (P14635 whole entry partner): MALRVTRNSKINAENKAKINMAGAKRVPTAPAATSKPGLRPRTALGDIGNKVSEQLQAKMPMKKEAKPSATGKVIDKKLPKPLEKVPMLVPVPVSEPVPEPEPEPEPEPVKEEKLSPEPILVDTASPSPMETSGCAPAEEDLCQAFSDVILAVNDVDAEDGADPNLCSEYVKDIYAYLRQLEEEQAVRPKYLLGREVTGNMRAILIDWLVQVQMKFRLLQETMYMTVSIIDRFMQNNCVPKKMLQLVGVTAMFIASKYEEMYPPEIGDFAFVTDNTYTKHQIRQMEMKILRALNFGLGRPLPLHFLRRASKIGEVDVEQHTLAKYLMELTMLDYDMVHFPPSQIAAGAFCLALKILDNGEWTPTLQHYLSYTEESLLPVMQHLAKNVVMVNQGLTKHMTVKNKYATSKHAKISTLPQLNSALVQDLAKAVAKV
T1 sequence (O08775 786-1343): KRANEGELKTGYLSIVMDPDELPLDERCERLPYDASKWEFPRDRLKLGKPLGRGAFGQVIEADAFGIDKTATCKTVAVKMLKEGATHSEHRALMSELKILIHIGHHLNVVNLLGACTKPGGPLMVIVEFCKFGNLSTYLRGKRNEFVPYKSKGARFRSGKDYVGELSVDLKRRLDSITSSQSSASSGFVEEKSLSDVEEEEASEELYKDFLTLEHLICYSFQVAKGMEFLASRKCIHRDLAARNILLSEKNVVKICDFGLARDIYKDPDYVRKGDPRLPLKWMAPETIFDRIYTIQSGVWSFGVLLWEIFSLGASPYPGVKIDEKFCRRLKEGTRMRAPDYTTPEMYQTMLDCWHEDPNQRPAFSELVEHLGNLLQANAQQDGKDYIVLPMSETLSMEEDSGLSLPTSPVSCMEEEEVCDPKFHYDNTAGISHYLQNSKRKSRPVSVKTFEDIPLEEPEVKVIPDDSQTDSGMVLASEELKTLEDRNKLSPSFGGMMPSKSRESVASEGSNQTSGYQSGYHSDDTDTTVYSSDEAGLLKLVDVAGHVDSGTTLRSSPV
T4 sequence (P07948 whole entry): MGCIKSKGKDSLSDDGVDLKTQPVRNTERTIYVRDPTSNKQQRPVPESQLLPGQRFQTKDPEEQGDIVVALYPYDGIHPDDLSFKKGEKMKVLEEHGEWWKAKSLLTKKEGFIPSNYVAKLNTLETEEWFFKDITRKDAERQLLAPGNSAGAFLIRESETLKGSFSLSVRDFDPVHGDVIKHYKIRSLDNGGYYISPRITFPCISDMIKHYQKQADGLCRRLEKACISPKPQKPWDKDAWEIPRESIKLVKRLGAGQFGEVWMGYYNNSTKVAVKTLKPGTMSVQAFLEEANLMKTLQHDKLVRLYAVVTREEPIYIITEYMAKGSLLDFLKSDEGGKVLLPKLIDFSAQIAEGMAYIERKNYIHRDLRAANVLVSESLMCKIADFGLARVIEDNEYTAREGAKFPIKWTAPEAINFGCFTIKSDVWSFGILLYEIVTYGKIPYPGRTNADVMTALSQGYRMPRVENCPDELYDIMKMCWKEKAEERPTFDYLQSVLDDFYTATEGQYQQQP

COc1ccc2nc(-c3n[nH]c4ncc(-c5cccnc5)cc34)[nH]c2c1 [Cpd 90, 3-(6-methoxy-1H-benzoimidazol-2-yl)-5-pyridin-3-yl-1H-pyrazolo[3,4-b]pyridine]
IC50 ([1]; HeLa): 0.418 µM | IC50 [2, 11]: 0.299 µM | IC50 [3]: 0.371 µM | IC50 [4]: 0.316 µM | IC50 [5]: 0.279 µM | IC50 [6]: 0.00274 µM | IC50 [7]: 0.0694 µM | IC50 [8]: 0.0567 µM

COCc1cccc2[nH]c(-c3n[nH]c4ncc(-c5cncc(CNC6CCN(C)CC6)c5)cc34)nc12 [Cpd 80, {5-[3-(4-methoxymethyl-1H-benzoimidazol-2-yl)-1H-pyrazolo[3,4-b]pyridin-5-yl]-pyridin-3-ylmethyl}-(1-methyl-piperidin-4-yl)-amine]
IC50 [9]: > 100 µM | IC50 ([1]; HeLa): > 10 µM | IC50 [2, 11]: 2.31 µM | IC50 [3]: 0.397 µM | IC50 [4]: 2.08 µM | IC50 [5]: > 10 µM | IC50 [6]: 0.875 µM | IC50 [7]: 0.192 µM | IC50 [8]: 0.211 µM | IC50 [10]: > 100 µM

CN1CCN(c2ccc3[nH]c(-c4n[nH]c5ncc(-c6cncc7ccccc67)cc45)nc3c2)CC1 [Cpd 31, 4-{3-[5-(4-methyl-piperazin-1-yl)-1H-benzoimidazol-2-yl]-1H-pyrazolo[3,4-b]pyridin-5-yl}-isoquinoline]
IC50 [9]: 6.51 µM | IC50 [1]: 0.455 µM | IC50 ([2]; Homo sapiens, HCT-116 cells): 0.355 µM | IC50 [3]: 0.165 µM | IC50 [6]: 0.0136 µM | IC50 [7]: 0.00387 µM | IC50 [8]: 0.00421 µM

COCc1cccc2[nH]c(-c3n[nH]c4ncc(-c5ccncc5)cc34)nc12 [Cpd 65, 3-(4-methoxymethyl-1H-benzoimidazol-2-yl)-5-pyridin-4-yl-1H-pyrazolo[3,4-b]pyridine]
IC50 [9]: > 100 µM | IC50 ([1]; HeLa): 3.09 µM | IC50 [2, 11]: 0.062 µM | IC50 [3]: 0.0226 µM | IC50 [4]: 0.115 µM | IC50 [5]: > 1 µM | IC50 [6]: > 1 µM | IC50 [7]: 0.277 µM | IC50 [8]: 0.315 µM | IC50 [10]: > 100 µM

CNCc1cncc(-c2cnc3[nH]nc(-c4nc5ccc(OC)cc5[nH]4)c3c2)c1 [Cpd 97, {5-[3-(6-methoxy-1H-benzoimidazol-2-yl)-1H-pyrazolo[3,4-b]pyridin-5-yl]-pyridin-3-ylmethyl}-methyl-amine]
IC50 [9]: 1.45 µM | IC50 [1]: 0.0614 µM | IC50 ([2]; Homo sapiens, HCT-116 cells): 0.0615 µM | IC50 [3]: 0.164 µM | IC50 [6]: 0.0009 µM | IC50 [7]: 0.00429 µM | IC50 [8]: 0.0164 µM

COCc1cccc2[nH]c(-c3n[nH]c4ncc(-c5cncc(CNC(C)C)c5C)cc34)nc12 [Cpd 58, isopropyl-{5-[3-(4-methoxymethyl-1H-benzoimidazol-2-yl)-1H-pyrazolo[3,4-b]pyridin-5-yl]-4-methyl-pyridin-3-ylmethyl}-amine]
IC50 [9]: > 100 µM | IC50 ([1]; HeLa): 2.71 µM | IC50 [2, 11]: 0.459 µM | IC50 [3]: 0.168 µM | IC50 [4]: 3.9 µM | IC50 [5]: 12.4 µM | IC50 [6]: 0.339 µM | IC50 [7]: 0.529 µM | IC50 [8]: 0.653 µM | IC50 [10]: > 10 µM

CC(C)NCc1cncc(-c2cnc3[nH]nc(-c4nc5cc(N6CCN(C)CC6)ccc5[nH]4)c3c2)c1 [Cpd 83, isopropyl-(5-{3-[5-(4-methyl-piperazin-1-yl)-1H-benzoimidazol-2-yl]-1H-pyrazolo[3,4-b]pyridin-5-yl}-pyridin-3-ylmethyl)-amine]
IC50 [9]: 1.49 µM | IC50 ([1]; HeLa): 1.45 µM | IC50 [2, 11]: 1.5 µM | IC50 [3]: 1.06 µM | IC50 [4]: 0.0734 µM | IC50 [5]: 0.263 µM | IC50 [6]: 0.00767 µM | IC50 [7]: 0.00243 µM | IC50 [8]: 0.00663 µM

CNCc1cncc(-c2cnc3[nH]nc(-c4nc5cc(N6CCN(C)CC6)ccc5[nH]4)c3c2)c1 [Cpd 81, methyl-(5-{3-[5-(4-methyl-piperazin-1-yl)-1H-benzoimidazol-2-yl]-1H-pyrazolo[3,4-b]pyridin-5-yl}-pyridin-3-ylmethyl)-amine]
IC50 [9]: 0.715 µM | IC50 [1]: 0.444 µM | IC50 ([2]; Homo sapiens, HCT-116 cells): 0.6 µM | IC50 [3]: 0.768 µM | IC50 [4]: 0.0359 µM | IC50 [5]: 0.173 µM | IC50 [6]: 0.00304 µM | IC50 [7]: 0.17 µM | IC50 [8]: 0.225 µM

c1ccc2c(-c3cnc4[nH]nc(-c5nc6cc(N7CCOCC7)ccc6[nH]5)c4c3)cncc2c1 [Cpd 51, 4-[3-(5-morpholin-4-yl-1H-benzoimidazol-2-yl)-1H-pyrazolo[3,4-b]pyridin-5-yl]-isoquinoline]
IC50 [9]: > 100 µM | IC50 ([1]; HeLa): 0.401 µM | IC50 [2, 11]: 0.376 µM | IC50 [3]: 0.297 µM | IC50 [4]: 1.08 µM | IC50 [5]: 0.0415 µM | IC50 [6]: 0.00855 µM | IC50 [7]: 0.005 µM | IC50 [8]: 0.00282 µM

COCc1cccc2[nH]c(-c3n[nH]c4ncc(-c5cncc(CN6CCOCC6)c5)cc34)nc12 [Cpd 54, 3-(4-methoxymethyl-1H-benzoimidazol-2-yl)-5-(5-morpholin-4-ylmethyl-pyridin-3-yl)-1H-pyrazolo[3,4-b]pyridine]
IC50 [9]: > 100 µM | IC50 ([2]; HCT-116 cells): 0.0635 µM | IC50 [2, 11]: 0.0336 µM | IC50 [4]: 1.88 µM and 1.57 µM | IC50 [5]: 3.26 µM and 4.64 µM | IC50 [6]: 0.177 µM and 0.343 µM | IC50 [7]: 0.578 µM | IC50 [8]: 0.143 µM

O=C(NC1CC1)c1cccc2[nH]c(-c3n[nH]c4ncc(-c5cncc6ccccc56)cc34)nc12 [Cpd 47, 2-(5-isoquinolin-4-yl-1H-pyrazolo[3,4-b]pyridin-3-yl)-1H-benzoimidazole-4-carboxylic acid cyclopropylamide]
IC50 [9]: ~10 µM | IC50 ([1]; HeLa): 0.0122 µM | IC50 [2, 11]: 0.0313 µM | IC50 [3]: 0.0129 µM | IC50 [4]: 0.149 µM | IC50 [5]: 0.0572 µM | IC50 [6]: 0.00159 µM | IC50 [7]: 0.00228 µM | IC50 [8]: 0.000635 µM

COCc1cccc2[nH]c(-c3n[nH]c4ncc(-c5cncc(CN(C)C)c5)cc34)nc12 [Cpd 55, {5-[3-(4-methoxymethyl-1H-benzoimidazol-2-yl)-1H-pyrazolo[3,4-b]pyridin-5-yl]-pyridin-3-ylmethyl}-dimethyl-amine]
IC50 [9]: > 100 µM | IC50 ([1]; HeLa): 1.23 µM | IC50 [2, 11]: 0.186 µM | IC50 [3]: 0.33 µM | IC50 [4]: 1.6 µM | IC50 [5]: 3.75 µM | IC50 [6]: 0.124 µM | IC50 [7]: 0.578 µM | IC50 [8]: 0.143 µM

Source: patent US7541367B2, “3-benzoimidazolyl-pyrazolopyridines useful in treating kinase disorders” (Janssen Pharmaceutica, N.V., priority 2005, dated 2009)
